Reference: PMC9669616, “The recommended dosage regimen for caspofungin in patients with higher body weight or hypoalbuminaemia will result in low exposure: Five years of data based on a population pharmacokinetic model and Monte-Carlo simulations” (Frontiers in Pharmacology, 2022)
In brackets after ≈: the same amount, converted by molar mass. Where two headings read alike, the source gives them in different places.

Experiments:
[1] = cited from earlier work
Text: Van den Elst et al. found the caspofungin exposure in ICU patients was low compared with that in healthy volunteers and other (non)critically ill patients ([van der Elst et al., 2017]).

ALB = conditions: cited from earlier work
Text: The final general and ICU-subgroup PPK models of caspofungin were used for the simulation study to evaluate the degree of exposure. A MCS method published before ([Pfaller et al., 2006]) was used for analyzing the probability of target attainment (PTA) and cumulative fraction of response (CFR) following various caspofungin dosage regimens in all patients and ICU patients. […] Caspofungin was extensively bound to ALB (97%) ([Stone ...

[2] = healthy subjects; ref Stone et al., 2002; cited from earlier work
Text: Van den Elst et al. found the caspofungin exposure in ICU patients was low compared with that in healthy volunteers and other (non)critically ill patients ([van der Elst et al., 2017]). Many factors could influence the caspo ...

[3] = general population pharmacokinetic (PPK) model, all patients; assay type: in vivo, human; parameters: AUC: concentration or dose not given beside the values; conditions: for AUC / clearance: general PPK model, mean ± SD (range)
Experimental: The patients for the general PPK model came from a single-center, and the study was conducted from June 2014 to June 2019 at the First Affiliated Hospital of Xi’an Jiaotong University. Patients who had been diagnosed with confirmed or probable candidiasis and been treated with caspofungin were included in the study. The identification of infection was according to the IFIs Cooperative Group and the National Institute of Allergy and Infectious Diseases Mycoses Study Group criteria ([De Pauw et al., 2008]). All patients were divided into four groups (ICU patients, SOT patients, HEMT patients, and other patients from respiratory department). Caspofungin was administered intravenously over 1 h. Most of the patients received the standard dosage regimen of 70/50 mg. Patients with hepatic insufficiency (Child-Pugh B) received a reduced dosage regimen of 70/35 mg and patients with body weight (WT) > 75 kg received an increased dosage regimen of 70/70 mg. The study protocol was approved by the institutional review board of the teaching hospital (No.XJTU1AF2017LSK-28). All subjects signed the informed consent before any screening item being performed. History of hypersensitivity, severe intolerance to caspofungin, other constituents change resulted from caspofungin, age <18 years and pregnancies were excluded in the study.
Factors which may influence the PK parameters of caspofungin were collected for the patients of the general PPK model from the teaching hospital. The factors included demographic factors (sex, age and WT); medical characteristics [carrier mediated transportation (CMT), surgical operation (SOP), baseline disease, organ support therapy]; laboratory data [red blood cells, hemoglobin, hematocrit, white blood cell, lymphocyte, neutrophile, platelets, alanine aminotransferase, aspartate transaminase, alkaline phosphatase, gamma-glutamyl transpeptidase, total bilirubin, albumin (ALB), blood urea nitrogen, uric acid, serum creatinine acid, creatinine clearance rate]; concomitant medications (immunosuppressants, glucocorticoid, antimicrobial agents and antivirals) and other related factors. Because we could not obtain all values of ICU patients for the seven literature studies, only factors which may have a great influence on the PK of caspofungin, such as sex, age, WT, dosage and method of administration, ALB concentrations and whether concomitant continuous renal replacement therapy (CRRT) of ICU patients from the teaching hospital and other seven studies were collected for the construction of the ICU-subgroup PPK model. The selection criteria were based on the results obtained from previous studies of factors influencing the caspofungin plasma concentration ([Spriet et al., 2009]; [Spriet et al., 2011]; [Weiler et al., 2013]; [Muilwijk et al., 2014]; [Sinnollareddy et al., 2015]; [Roger et al., 2017]; [van der Elst et al., 2017]). […] Combined with the clinical situation, the ALB and WT were converted into dichotomous variables according to whether the ALB <35 g/L or ≥35 g/L and whether the WT < 70 kg or ≥70 kg, respectively.
We collected the pooled data of caspofungin plasma samples from patients at the teaching hospital who received caspofungin prevention or treatment therapies from June 2014 to June 2019. Caspofungin plasma C min samples were collected at interval windows of 22–24 h post-dose, while other caspofungin plasma samples were collected at interval windows of 0–12 h and 12–22 h post-dose. The caspofungin plasma concentrations from the other seven studies of ICU patients—which included both dense sampling and sparse sampling—were directly collected from the relevant published papers, and all related caspofungin plasma concentrations were collected ([Spriet et al., 2009]; [Spriet et al., 2011]; [Weiler et al., 2013]; [Muilwijk et al., 2014]; [Sinnollareddy et al., 2015]; [Roger et al., 2017]; [van der Elst et al., 2017]). […]

C. glabrata = conditions: ref Li et al., 2013; cited from earlier work
Text: (§1) The first goal of this study was to determine whether the contemporary dosage regimens for caspofungin can achieve the target PK/PD index against Candida isolates in all patients and especially in ICU patients. […] At present, the relationship between caspofungin Cmax and toxicity remains poorly clarified ([Kim et al., 2022]). In this study, we only used the fAUC/MIC as caspofungin PK/PD target for we could get th ...

C. parapsilosis = conditions: ref Li et al., 2013; cited from earlier work
Text: as §1

C. albicans = conditions: ref Li et al., 2013; cited from earlier work
Text: as §1

[4] = cited from earlier work; remark: listed apart in the source
Text: Safety also needs to be considered when increasing the caspofungin exposure, because any harm to the patient should be minimal.

[5] = all patients n = 299, final model
[6] = human, plasma, iv, ICU patients of the teaching hospital
[7] = human, plasma, iv, all patients n = 299
[8] = human, plasma, iv, hematopathy patients
[9] = human, plasma, iv, other patients
[10] = human, plasma, iv, transplant (SOT) patients

CC[C@H](C)C[C@H](C)CCCCCCCCC(=O)N[C@H]1C[C@@H](O)[C@@H](NCCN)NC(=O)[C@@H]2[C@@H](O)CCN2C(=O)[C@H]([C@H](O)CCN)NC(=O)[C@H]([C@H](O)[C@@H](O)c2ccc(O)cc2)NC(=O)[C@@H]2C[C@@H](O)CN2C(=O)[C@H]([C@@H](C)O)NC1=O [caspofungin]
CL, typical value ([1]; ICU patients, day 1, ref Borsuk-De Moor et al., 2020): 0.563 L/h | CL, typical value ([1]; ICU patients, day 2, ref Borsuk-De Moor et al., 2020): 0.737 L/h | CL, typical value ([1]; ICU patients, day 3, ref Borsuk-De Moor et al., 2020): 1.01 L/h | decrease in caspofungin exposure ([1]; ICU patients, increasing clearance with subsequent doses, ref Borsuk-De Moor et al., 2020): > 20% | CL ([1]; ICU patients, ref Martial et al., 2016): 0.55 L/h | CL ([1]; critically-ill Chinese patients, ref Li et al., 2021): 0.32 L/h | CL ([1]; general patients, ref Wurthwein et al., 2012): 0.46 L/h | CL ([1]; general patients, ref Wurthwein et al., 2013): 0.40 L/h | bound to ALB (ALB; ref Stone et al., 2004): 97% | protein binding value (ALB; used to calculate free drug concentrations in the simulation, ref Andes et al., 2010): 97% | plasma trough concentration (C min), range [2]: 1120 to 1780 ng/mL | θ1, typical population value of CL [3, 5]: 0.32 L/h | θ4, influence of ALB (<35 g/L) on V [3, 5]: 0.49 | θ6, influence of WT (≥70 kg) on V [3, 5]: 0.24 | θ4, influence of ALB (<35 g/L) on V ([3]; all patients, bootstrap, lower boundary of 95% CI): 0.25 | θ4, influence of ALB (<35 g/L) on V ([3]; all patients, bootstrap, upper boundary of 95% CI): 0.73 | AUC [3, 6]: 101 µg·h/mL | clearance [3, 6]: 7.83 mL/min | AUC [3, 7]: 126 µg·h/mL | clearance [3, 7]: 7 mL/min | AUC [3, 8]: 118 µg·h/mL | clearance [3, 8]: 7.5 mL/min | AUC [3, 9]: 120 µg·h/mL | clearance [3, 9]: 6.83 mL/min | AUC [3, 10]: 136 µg·h/mL | clearance [3, 10]: 6.67 mL/min | Vd ([3]; human, plasma, iv, all patients n = 299, final model, read-out: θ2, typical population value of V): 13.3 L | MIC, mean (C. glabrata): 0.25 µg/mL (≈ 0.229 µM) | MIC, range (C. glabrata): 0.047 to 0.38 µg/mL | MIC, mean (C. parapsilosis): 1.5 µg/mL (≈ 1.37 µM) | MIC, range (C. parapsilosis): 0.38 to 2 µg/mL | MIC, mean (C. albicans): 0.19 µg/mL (≈ 0.174 µM) | MIC, range (C. albicans): 0.032 to 0.38 µg/mL | tolerability ([4]; 150 mg daily for a median of 24.5 days, ref Cornely et al., 2011): well tolerated without dose-limiting toxicity | tolerability ([4]; patients with invasive candidiasis, 150 mg daily, mean duration 14.2 days, ref Betts et al., 2009): well tolerated
